Assays:
EPHB3 = biological target: T1, EPHB3 (Homo sapiens, UniProt P54753); conditions: 1 μM; Run 1, Run 2
T1 sequence (P54753 34-998): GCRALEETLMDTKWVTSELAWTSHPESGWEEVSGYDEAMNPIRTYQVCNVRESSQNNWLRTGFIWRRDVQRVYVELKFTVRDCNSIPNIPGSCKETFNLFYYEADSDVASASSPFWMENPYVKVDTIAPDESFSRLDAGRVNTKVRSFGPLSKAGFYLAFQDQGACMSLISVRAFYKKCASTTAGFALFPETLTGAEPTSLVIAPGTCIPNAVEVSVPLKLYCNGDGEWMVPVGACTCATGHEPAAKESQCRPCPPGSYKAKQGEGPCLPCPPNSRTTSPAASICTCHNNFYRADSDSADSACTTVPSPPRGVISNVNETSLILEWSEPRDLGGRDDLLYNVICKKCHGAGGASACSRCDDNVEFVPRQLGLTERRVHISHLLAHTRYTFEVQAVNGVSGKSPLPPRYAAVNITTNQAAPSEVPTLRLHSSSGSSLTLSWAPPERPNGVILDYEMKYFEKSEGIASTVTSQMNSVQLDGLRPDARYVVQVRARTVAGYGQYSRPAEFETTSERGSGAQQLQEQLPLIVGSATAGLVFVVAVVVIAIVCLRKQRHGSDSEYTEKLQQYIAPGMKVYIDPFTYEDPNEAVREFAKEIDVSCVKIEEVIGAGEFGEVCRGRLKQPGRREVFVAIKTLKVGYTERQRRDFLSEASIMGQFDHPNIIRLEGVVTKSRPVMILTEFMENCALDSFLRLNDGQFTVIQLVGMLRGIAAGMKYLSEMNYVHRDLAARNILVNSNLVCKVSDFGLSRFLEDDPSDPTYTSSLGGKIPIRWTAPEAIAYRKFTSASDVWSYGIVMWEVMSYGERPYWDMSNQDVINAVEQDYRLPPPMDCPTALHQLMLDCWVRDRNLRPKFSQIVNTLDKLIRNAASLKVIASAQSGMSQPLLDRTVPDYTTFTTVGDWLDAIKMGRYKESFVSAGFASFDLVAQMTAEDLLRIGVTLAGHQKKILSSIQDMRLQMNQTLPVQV

NEK11 = biological target: T2, NEK11 (Homo sapiens, UniProt Q8NG66); conditions: 1 μM; Run 1, Run 2
T2 sequence (Q8NG66 1-645): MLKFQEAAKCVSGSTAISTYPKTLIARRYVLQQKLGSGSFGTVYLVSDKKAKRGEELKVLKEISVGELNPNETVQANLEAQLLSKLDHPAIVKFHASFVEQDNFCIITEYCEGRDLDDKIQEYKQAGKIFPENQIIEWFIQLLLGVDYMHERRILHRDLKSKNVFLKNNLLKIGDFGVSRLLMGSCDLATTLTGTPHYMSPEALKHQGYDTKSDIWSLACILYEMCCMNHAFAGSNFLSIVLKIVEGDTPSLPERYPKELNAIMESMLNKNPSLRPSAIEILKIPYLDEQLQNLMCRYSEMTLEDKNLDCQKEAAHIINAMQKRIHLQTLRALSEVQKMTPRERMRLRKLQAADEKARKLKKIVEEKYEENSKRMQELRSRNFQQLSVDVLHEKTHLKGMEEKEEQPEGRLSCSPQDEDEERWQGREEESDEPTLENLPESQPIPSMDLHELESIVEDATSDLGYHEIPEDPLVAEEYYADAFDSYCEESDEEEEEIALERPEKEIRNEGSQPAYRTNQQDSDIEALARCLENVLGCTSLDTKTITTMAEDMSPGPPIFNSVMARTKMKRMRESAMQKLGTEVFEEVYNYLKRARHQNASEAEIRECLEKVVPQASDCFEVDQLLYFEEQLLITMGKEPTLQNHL

ZAP70 = biological target: T3, ZAP70 (Homo sapiens, UniProt P43403); conditions: 1 μM; Run 1, Run 2
T3 sequence (P43403 1-619): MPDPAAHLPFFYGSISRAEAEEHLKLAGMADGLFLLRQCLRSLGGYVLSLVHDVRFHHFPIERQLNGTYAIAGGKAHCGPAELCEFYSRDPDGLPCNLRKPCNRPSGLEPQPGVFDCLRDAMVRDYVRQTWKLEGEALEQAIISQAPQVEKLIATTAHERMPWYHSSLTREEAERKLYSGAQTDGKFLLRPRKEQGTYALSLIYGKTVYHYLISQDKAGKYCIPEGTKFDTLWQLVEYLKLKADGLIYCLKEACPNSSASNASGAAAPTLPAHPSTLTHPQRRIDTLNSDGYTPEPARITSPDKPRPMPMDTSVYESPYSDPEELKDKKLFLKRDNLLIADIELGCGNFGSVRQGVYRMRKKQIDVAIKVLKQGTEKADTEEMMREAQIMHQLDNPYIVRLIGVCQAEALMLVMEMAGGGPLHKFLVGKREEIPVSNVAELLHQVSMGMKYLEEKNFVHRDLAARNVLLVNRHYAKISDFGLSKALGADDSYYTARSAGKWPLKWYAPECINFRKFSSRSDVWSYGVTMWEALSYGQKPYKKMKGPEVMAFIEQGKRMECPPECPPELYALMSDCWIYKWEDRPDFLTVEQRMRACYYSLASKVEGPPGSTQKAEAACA

MST2/STK3 = biological target: T4, MST2/STK3 (Homo sapiens, UniProt Q13188); test: biochemical; conditions: read-out: % enzyme activity, 1 μM; Run 1, Run 2
T4 sequence (Q13188 1-491): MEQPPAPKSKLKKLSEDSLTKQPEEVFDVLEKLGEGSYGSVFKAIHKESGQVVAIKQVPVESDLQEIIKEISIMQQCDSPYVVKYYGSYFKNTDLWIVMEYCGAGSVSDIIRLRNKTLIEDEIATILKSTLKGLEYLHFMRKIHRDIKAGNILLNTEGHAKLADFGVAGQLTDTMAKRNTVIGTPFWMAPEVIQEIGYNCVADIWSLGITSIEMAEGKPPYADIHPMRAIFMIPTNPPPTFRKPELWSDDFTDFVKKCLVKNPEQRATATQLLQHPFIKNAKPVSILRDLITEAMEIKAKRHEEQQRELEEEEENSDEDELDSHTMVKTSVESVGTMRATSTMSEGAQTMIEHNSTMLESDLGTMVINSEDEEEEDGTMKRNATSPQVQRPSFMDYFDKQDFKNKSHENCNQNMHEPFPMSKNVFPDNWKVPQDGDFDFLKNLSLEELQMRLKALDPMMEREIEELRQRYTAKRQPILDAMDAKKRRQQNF

PKCg = PKCg (Homo sapiens, UniProt P05129); test: biochemical; conditions: read-out: % enzyme activity, 1 μM; Run 1, Run 2

COc1cc(-c2cncc(-c3ccc(N4CCN(C)CC4)cc3)c2C)cc(F)c1C(N)=O [Compound 26a, 2-Fluoro-6-methoxy-4-(4-methyl-5-(4-(4-methylpiperazin-1-yl)phenyl)pyridin-3-yl)benzamide]
% enzyme activity (EPHB3): 95.16%
% enzyme activity (NEK11): 85.69%
% enzyme activity (ZAP70): 94.79%
remaining activity at 1 µM (MST2/STK3): 95.6%
remaining activity at 1 µM (PKCg): 97%

COc1cc(-c2cncc(-c3ccc(N4C[C@@H](C)N(C)[C@@H](C)C4)cc3)c2C)cc(F)c1C(N)=O [Compound 26c, 2-Fluoro-6-methoxy-4-(4-methyl-5-(4-((3R,5S)-3,4,5-trimethylpiperazin-1-yl)phenyl)pyridin-3-yl)benzamide]
% enzyme activity (EPHB3): 96.08%
% enzyme activity (NEK11): 87.79%
% enzyme activity (ZAP70): 98.47%
remaining activity at 1 µM (MST2/STK3): 102%
remaining activity at 1 µM (PKCg): 97.2%
